Data: PMC5353720 (2017)

System: PSA-aptamer (DNA, aptamer) TTTTTAATTAAAGCTCGCCATCAAATAGCTTT
Assay: extended-gate field-effect transistor (AptaFET)
Details: PBS, 1 mM MgCl2 (incubation); PBS (readout); 500 nM highest tested; shift 2.7 ± 0.3 mV against 22.3 mV on TFV-aptamer; immobilised aptamer

Compound: C[C@H](Cn1cnc2c(N)ncnc21)OCP(=O)(O)O
- binding: no
